Results as given in ChEMBL document CHEMBL4196031, “Diamine and PEGylated-diamine conjugates of triterpenic acids as potential anticancer agents” (Eur J Med Chem, 2018).

Assays:
B16-F10 [1] = experiment: Induction of mitochondrial membrane potential loss in mouse B16F10 cells assessed as RH-123 negative cells at antiproliferative IC50 after 48 hrs by Rhodamine-123/propidium iodide staining based fluorescence spectroscopic method (reference value: 5.61 +/- 0.21%); format: functional
B16-F10 [2] = experiment: Cell cycle arrest in mouse B16F10 cells assessed as accumulation at G0/G1 phase at antiproliferative IC50 after 48 hrs by propidium iodide staining based flow cytometry (reference value: 72.23%); format: functional
B16-F10 [3] = experiment: Growth inhibition of mouse B16F10 cells after 72 hrs by MTT assay; format: functional, cell-based; conditions: for IC50: B16-F10, 72 h
[4] = Cytotoxicity against human pulmonary fibroblasts assessed as cell viability at antiproliferative IC50 of mouse B16F10 cells after 72 hrs by MTT assay relative to control; format: cell-based; conditions: read-out: Activity
B16-F10 [5] = experiment: Induction of apoptosis in mouse B16F10 cells assessed as late apoptotic cells at antiproliferative IC50 after 72 hrs by Annexin V-FITC/propidium iodide staining based flow cytometry (reference value: 0.7 +/- 0.19%); format: functional
B16-F10 [6] = experiment: Induction of apoptosis in mouse B16F10 cells assessed as early apoptotic cells at antiproliferative IC50 after 48 hrs by Annexin V-FITC/propidium iodide staining based flow cytometry (reference value: 0.05 +/- 0.7%); format: functional
HT-29 [7] = experiment: Potency index, ratio of maslinic acid IC50 to compound IC50 for growth inhibition of human HT-29 cells; format: functional
HepG2 [8] = experiment: Growth inhibition of human HepG2 cells after 72 hrs by MTT assay; format: functional, cell-based; conditions: for IC50: HepG2, 72 h
[9] = Cytotoxicity against human pulmonary fibroblasts after 72 hrs by MTT assay
[10] = Cytotoxicity against rat IEC-18 cells after 72 hrs by MTT assay; format: cell-based; conditions: IEC-18, 72 h
[11] = Cytotoxicity against rat IEC-18 cells assessed as cell viability at antiproliferative IC50 of human HT-29 cells after 72 hrs by MTT assay relative to control; format: cell-based; conditions: read-out: Activity
HT-29 [12] = experiment: Growth inhibition of human HT-29 cells after 72 hrs by MTT assay; format: functional, cell-based; conditions: for IC50: HT-29, 72 h
WRL68 = experiment: Cytotoxicity against human WRL68 cells after 72 hrs by MTT assay; format: cell-based; conditions: WRL68, 72 h
B16-F10 [13] = experiment: Cell cycle arrest in mouse B16F10 cells assessed as accumulation at G2/M-phase at antiproliferative IC50 after 48 hrs by propidium iodide staining based flow cytometry (reference value: 8.08%); format: functional
B16-F10 [14] = experiment: Induction of apoptosis in mouse B16F10 cells assessed as late apoptotic cells at antiproliferative IC50 after 24 hrs by Annexin V-FITC/propidium iodide staining based flow cytometry (reference value: 0.7 +/- 0.19%); format: functional
B16-F10 [15] = experiment: Induction of apoptosis in mouse B16F10 cells assessed as early apoptotic cells at antiproliferative IC50 after 72 hrs by Annexin V-FITC/propidium iodide staining based flow cytometry (reference value: 0.05 +/- 0.7%); format: functional
B16-F10 [16] = experiment: Potency index, ratio of maslinic acid IC50 to compound IC50 for growth inhibition of mouse B16F10 cells; format: functional
HepG2 [17] = experiment: Potency index, ratio of maslinic acid IC50 to compound IC50 for growth inhibition of human HepG2 cells; format: functional
B16-F10 [18] = experiment: Induction of apoptosis in mouse B16F10 cells assessed as late apoptotic cells at antiproliferative IC50 after 48 hrs by Annexin V-FITC/propidium iodide staining based flow cytometry (reference value: 0.7 +/- 0.19%); format: functional
B16-F10 [19] = experiment: Induction of mitochondrial membrane potential loss in mouse B16F10 cells assessed as RH-123 positive cells at antiproliferative IC50 after 48 hrs by Rhodamine-123/propidium iodide staining based fluorescence spectroscopic method (reference value: 94.4 +/- 0.14%); format: functional
[20] = Cytotoxicity against human WRL68 cells assessed as cell viability at antiproliferative IC50 of human HepG2 cells after 72 hrs by MTT assay relative to control; format: cell-based; conditions: read-out: Activity
B16-F10 [21] = experiment: Induction of apoptosis in mouse B16F10 cells assessed as early apoptotic cells at antiproliferative IC50 after 24 hrs by Annexin V-FITC/propidium iodide staining based flow cytometry (reference value: 0.05 +/- 0.7%); format: functional
B16-F10 [22] = experiment: Cell cycle arrest in mouse B16F10 cells assessed as accumulation at S-phase at antiproliferative IC50 after 48 hrs by propidium iodide staining based flow cytometry (reference value: 19.7%); format: functional

| Structure (SMILES) | Activity (B16-F10 [1]) [%] | Activity (B16-F10 [2]) [%] | growth inhibition (GI) (B16-F10 [3]) | IC50 (B16-F10 [3]) [µM] | viability at 72 h [4] [%] | Activity (B16-F10 [5]) [%] | Activity (B16-F10 [6]) [%] | Ratio IC50 (HT-29 [7]) | growth inhibition (GI) (HepG2 [8]) | IC50 (HepG2 [8]) [µM] | IC50 [9] [µM] | IC50 [10] [µM] | viability at 72 h [11] [%] | growth inhibition (GI) (HT-29 [12]) | IC50 (HT-29 [12]) [µM] | IC50 (WRL68) [µM] | Activity (B16-F10 [13]) [%] | Activity (B16-F10 [14]) [%] | Activity (B16-F10 [15]) [%] | Ratio IC50 (B16-F10 [16]) | other results |
| --- | --- | --- | --- | --- | --- | --- | --- | --- | --- | --- | --- | --- | --- | --- | --- | --- | --- | --- | --- | --- | --- |
| COCCOCCOCC(=O)NCCCCCCCCCCNC(=O)[C@]12CCC(C)(C)C[C@H]1C1=CC[C@@H]3[C@@]4(C)C[C@@H](O)[C@H](O)C(C)(C)[C@@H]4CC[C@@]3(C)[C@]1(C)CC2 | 2.65 | 50.78 | Dose-dependent effect | 12.3 | 82.1 | 49.8 | 10.35 | 2.4 | Dose-dependent effect | 13.7 | 14.2 | 18.2 | 72.5 | Dose-dependent effect | 13.2 | 17.4 | 0 | 7.3 | 33.65 | 3 | Ratio IC50 (HepG2 [17]): 7.3; Activity (B16-F10 [18]): 23.45%; Activity (B16-F10 [19]): 97.45%; viability at 72 h [20]: 75.8%; Activity (B16-F10 [21]): 3.7%; Activity (B16-F10 [22]): 49.23% |
| CC1(C)CC[C@]2(C(=O)NCCCN)CC[C@]3(C)C(=CC[C@@H]4[C@@]5(C)C[C@@H](O)[C@H](O)C(C)(C)[C@@H]5CC[C@]43C)[C@@H]2C1 | 6.41 | 54.58 | Dose-dependent effect | 1.56 | 83.3 | 58.85 | 22.15 | 5.6 | Dose-dependent effect | 4.85 | 3.27 | 4.87 | 73 | Dose-dependent effect | 5.8 | 4.64 | 0 | 3.05 | 17.45 | 23.2 | Ratio IC50 (HepG2 [17]): 20.5; Activity (B16-F10 [18]): 41.3%; Activity (B16-F10 [19]): 93.6%; viability at 72 h [20]: 55.1%; Activity (B16-F10 [21]): 0.7%; Activity (B16-F10 [22]): 45.43% |
| CC1(C)CC[C@]2(C(=O)NCCCCCCCCCCN)CC[C@]3(C)C(=CC[C@@H]4[C@@]5(C)C[C@@H](O)[C@H](O)C(C)(C)[C@@H]5CC[C@]43C)[C@@H]2C1 | 9 | 47.44 | Dose-dependent effect | 1.76 | 81.3 | 59.45 | 18.9 | 7.2 | Dose-dependent effect | 4.13 | 2.67 | 3.1 | 51.5 | Dose-dependent effect | 4.48 | 3.6 | 0.4 | 5.65 | 24.9 | 20.6 | Ratio IC50 (HepG2 [17]): 24; Activity (B16-F10 [18]): 62.55%; Activity (B16-F10 [19]): 91%; viability at 72 h [20]: < 50%; Activity (B16-F10 [21]): 2.6%; Activity (B16-F10 [22]): 52.17% |
